# In EP1285920A1, “C10 Ester sustituted taxanes as antitumor agents” (Florida State University Research Foundation, Inc., priority 2001, dated 2003):
# Tested on: HCT116
# Assay: In Vitro cytotoxicity measured by the cell colony formation assay
# Format: cell-based, human
# Conditions: HCT116 colony formation; 72 h with drug, colonies counted after 7 days; ID50 = concentration producing 50% inhibition of colony formation; read-out: IN VITRO ID 50 HCT116
# Protocol: Four hundred cells (HCT116) were plated in 60 mm Petri dishes containing 2.7 mL of medium (modified McCoy's 5a medium containing 10% fetal bovine serum and 100 units/mL penicillin and […] streptomycin). The cells were incubated in a CO2 incubator at 37 °C for 5 h for attachment to the bottom of Petri dishes. The compounds identified in Example 2 were made up fresh in medium at ten times the final concentration, and then 0.3 mL of this stock solution was added to the 2.7 mL of medium in the dish. The cells were then incubated with drugs for 72 h at 37 °C. At the end of incubation the drug-containing media were decanted, the dishes were rinsed with 4 mL of Hank's Balance Salt Solution (HBSS), 5 mL of fresh medium was added, and the dishes were returned to the incubator for colony formation. The cell colonies were counted using a colony counter after incubation for 7 days.
row,SMILES,IC50
1,CC=CC(=O)OC1C(=O)C2(C)C(O)CC3OCC3(OC(C)=O)C2C(OC(=O)c2ccccc2)C2(O)CC(OC(=O)C(O)C(C=C(C)C)NC(=O)OC(C)(C)C)C(C)=C1C2(C)C (stereo not shown) [Compound 2332],< 1 nM

# Same assay, conditions: Homo sapiens, HCT-116; read-out: IN VITRO ID 50 HCT116
row,SMILES,IC50
1,CC(=O)O[C@@]12CO[C@@H]1C[C@H](O)[C@@]1(C)C(=O)[C@H](OC(=O)c3cccs3)C3=C(C)[C@@H](OC(=O)[C@H](O)[C@@H](NC(=O)OC(C)(C)C)c4ccco4)C[C@@](O)([C@@H](OC(=O)c4ccccc4)[C@H]21)C3(C)C [Compound 1892],< 1 nM
2,CC(=O)O[C@@]12CO[C@@H]1C[C@H](O)[C@@]1(C)C(=O)[C@H](OC(=O)c3cccs3)C3=C(C)[C@@H](OC(=O)[C@H](O)[C@@H](NC(=O)OC(C)(C)C)c4cccs4)C[C@@](O)([C@@H](OC(=O)c4ccccc4)[C@H]21)C3(C)C [Compound 1900],< 1 nM
3,CC(=O)O[C@@]12CO[C@@H]1C[C@H](O)[C@@]1(C)C(=O)[C@H](OC(=O)c3cccs3)C3=C(C)[C@@H](OC(=O)[C@H](O)[C@@H](NC(=O)OC(C)(C)C)c4ccc([N+](=O)[O-])cc4)C[C@@](O)([C@@H](OC(=O)c4ccccc4)[C@H]21)C3(C)C [Compound 1911],< 10 nM
4,CC(=O)O[C@@]12CO[C@@H]1C[C@H](O)[C@@]1(C)C(=O)[C@H](OC(=O)c3cccs3)C3=C(C)[C@@H](OC(=O)[C@H](O)[C@@H](NC(=O)OC(C)(C)C)c4ccoc4)C[C@@](O)([C@@H](OC(=O)c4ccccc4)[C@H]21)C3(C)C [Compound 1923],< 1 nM
5,CC(=O)O[C@@]12CO[C@@H]1C[C@H](O)[C@@]1(C)C(=O)[C@H](OC(=O)c3cccs3)C3=C(C)[C@@H](OC(=O)[C@H](O)[C@@H](NC(=O)OC(C)(C)C)c4ccsc4)C[C@@](O)([C@@H](OC(=O)c4ccccc4)[C@H]21)C3(C)C [Compound 1939],< 1 nM
6,CC(=O)O[C@@]12CO[C@@H]1C[C@H](O)[C@@]1(C)C(=O)[C@H](OC(=O)c3cccs3)C3=C(C)[C@@H](OC(=O)[C@H](O)[C@@H](NC(=O)OC(C)(C)C)c4cccnc4)C[C@@](O)([C@@H](OC(=O)c4ccccc4)[C@H]21)C3(C)C [Compound 1948],< 10 nM
7,CC(=O)O[C@@]12CO[C@@H]1C[C@H](O)[C@@]1(C)C(=O)[C@H](OC(=O)c3cccs3)C3=C(C)[C@@H](OC(=O)[C@H](O)[C@@H](NC(=O)OC(C)(C)C)c4ccncc4)C[C@@](O)([C@@H](OC(=O)c4ccccc4)[C@H]21)C3(C)C [Compound 1954],< 1 nM
8,CC(=O)O[C@@]12CO[C@@H]1C[C@H](O)[C@@]1(C)C(=O)[C@H](OC(=O)c3cccs3)C3=C(C)[C@@H](OC(=O)[C@H](O)[C@@H](NC(=O)OC(C)(C)C)C(C)C)C[C@@](O)([C@@H](OC(=O)c4ccccc4)[C@H]21)C3(C)C [Compound 1964],< 10 nM
9,CC(=O)O[C@@]12CO[C@@H]1C[C@H](O)[C@@]1(C)C(=O)[C@H](OC(=O)c3cccs3)C3=C(C)[C@@H](OC(=O)[C@H](O)[C@@H](NC(=O)OC(C)(C)C)C4CCC4)C[C@@](O)([C@@H](OC(=O)c4ccccc4)[C@H]21)C3(C)C [Compound 1970],< 10 nM
10,CC(=O)O[C@@]12CO[C@@H]1C[C@H](O)[C@@]1(C)C(=O)[C@H](OC(=O)c3cccs3)C3=C(C)[C@@H](OC(=O)[C@H](O)[C@@H](NC(=O)OC(C)(C)C)c4ccccc4)C[C@@](O)([C@@H](OC(=O)c4ccccc4)[C@H]21)C3(C)C [Compound 1988],< 10 nM
11,CC(=O)O[C@@]12CO[C@@H]1C[C@H](O)[C@@]1(C)C(=O)[C@H](OC(=O)c3ccco3)C3=C(C)[C@@H](OC(=O)[C@H](O)[C@H](C=C(C)C)NC(=O)OC(C)(C)C)C[C@@](O)([C@@H](OC(=O)c4ccccc4)[C@H]21)C3(C)C [Compound 2101],< 1 nM
12,CC(=O)O[C@@]12CO[C@@H]1C[C@H](O)[C@@]1(C)C(=O)[C@H](OC(=O)c3ccco3)C3=C(C)[C@@H](OC(=O)[C@H](O)[C@@H](NC(=O)OC(C)(C)C)c4ccccn4)C[C@@](O)([C@@H](OC(=O)c4ccccc4)[C@H]21)C3(C)C [Compound 2111],< 1 nM
13,CC(=O)O[C@@]12CO[C@@H]1C[C@H](O)[C@@]1(C)C(=O)[C@H](OC(=O)c3ccco3)C3=C(C)[C@@H](OC(=O)[C@H](O)[C@@H](NC(=O)OC(C)(C)C)c4cccnc4)C[C@@](O)([C@@H](OC(=O)c4ccccc4)[C@H]21)C3(C)C [Compound 2124],< 10 nM
14,CC(=O)O[C@@]12CO[C@@H]1C[C@H](O)[C@@]1(C)C(=O)[C@H](OC(=O)c3ccco3)C3=C(C)[C@@H](OC(=O)[C@H](O)[C@@H](NC(=O)OC(C)(C)C)c4ccncc4)C[C@@](O)([C@@H](OC(=O)c4ccccc4)[C@H]21)C3(C)C [Compound 2132],< 1 nM
15,CC(=O)O[C@@]12CO[C@@H]1C[C@H](O)[C@@]1(C)C(=O)[C@H](OC(=O)c3ccco3)C3=C(C)[C@@H](OC(=O)[C@H](O)[C@@H](NC(=O)OC(C)(C)C)c4ccco4)C[C@@](O)([C@@H](OC(=O)c4ccccc4)[C@H]21)C3(C)C [Compound 2142],< 1 nM
16,CC(=O)O[C@@]12CO[C@@H]1C[C@H](O)[C@@]1(C)C(=O)[C@H](OC(=O)c3ccco3)C3=C(C)[C@@H](OC(=O)[C@H](O)[C@@H](NC(=O)OC(C)(C)C)c4ccoc4)C[C@@](O)([C@@H](OC(=O)c4ccccc4)[C@H]21)C3(C)C [Compound 2159],< 1 nM
17,CC(=O)O[C@@]12CO[C@@H]1C[C@H](O)[C@@]1(C)C(=O)[C@H](OC(=O)c3ccco3)C3=C(C)[C@@H](OC(=O)[C@H](O)[C@@H](NC(=O)OC(C)(C)C)c4cccs4)C[C@@](O)([C@@H](OC(=O)c4ccccc4)[C@H]21)C3(C)C [Compound 2164],< 1 nM

row,SMILES,IC50
1,CC(=O)O[C@@]12CO[C@@H]1C[C@H](O)[C@@]1(C)C(=O)[C@H](OC(=O)c3ccco3)C3=C(C)[C@@H](OC(=O)[C@H](O)[C@@H](NC(=O)OC(C)(C)C)c4ccsc4)C[C@@](O)([C@@H](OC(=O)c4ccccc4)[C@H]21)C3(C)C [Compound 2173],< 1 nM
2,CC(=O)O[C@@]12CO[C@@H]1C[C@H](O)[C@@]1(C)C(=O)[C@H](OC(=O)c3ccco3)C3=C(C)[C@@H](OC(=O)[C@H](O)[C@@H](NC(=O)OC(C)(C)C)C(C)C)C[C@@](O)([C@@H](OC(=O)c4ccccc4)[C@H]21)C3(C)C [Compound 2181],< 10 nM
3,CC(=O)O[C@@]12CO[C@@H]1C[C@H](O)[C@@]1(C)C(=O)[C@H](OC(=O)c3ccco3)C3=C(C)[C@@H](OC(=O)[C@H](O)[C@@H](NC(=O)OC(C)(C)C)C4CCC4)C[C@@](O)([C@@H](OC(=O)c4ccccc4)[C@H]21)C3(C)C [Compound 2199],< 10 nM
4,CC(=O)O[C@@]12CO[C@@H]1C[C@H](O)[C@@]1(C)C(=O)[C@H](OC(=O)c3ccco3)C3=C(C)[C@@H](OC(=O)[C@H](O)[C@@H](NC(=O)OC(C)(C)C)c4ccc([N+](=O)[O-])cc4)C[C@@](O)([C@@H](OC(=O)c4ccccc4)[C@H]21)C3(C)C [Compound 2202],< 1 nM
5,CC(=O)OC12COC1CC(O)C1(C)C(=O)C(OC(=O)c3ccco3)C3=C(C)C(OC(=O)C(O)C(NC(=O)OC(C)(C)C)c4ccccc4)CC(O)(C(OC(=O)c4ccccc4)C21)C3(C)C (stereo not shown) [Compound 2212],< 10 nM
6,CC(=O)OC12COC1CC(O)C1(C)C(=O)C(OC(=O)C(C)C)C3=C(C)C(OC(=O)C(O)C(C=C(C)C)NC(=O)OC(C)(C)C)CC(O)(C(OC(=O)c4ccccc4)C21)C3(C)C (stereo not shown) [Compound 2226],< 1 nM
7,CC(=O)OC12COC1CC(O)C1(C)C(=O)C(OC(=O)C(C)C)C3=C(C)C(OC(=O)C(O)C(NC(=O)OC(C)(C)C)c4ccccn4)CC(O)(C(OC(=O)c4ccccc4)C21)C3(C)C (stereo not shown) [Compound 2238],< 1 nM
8,CC(=O)OC12COC1CC(O)C1(C)C(=O)C(OC(=O)C(C)C)C3=C(C)C(OC(=O)C(O)C(NC(=O)OC(C)(C)C)c4cccnc4)CC(O)(C(OC(=O)c4ccccc4)C21)C3(C)C (stereo not shown) [Compound 2242],< 10 nM
9,CC(=O)OC12COC1CC(O)C1(C)C(=O)C(OC(=O)C(C)C)C3=C(C)C(OC(=O)C(O)C(NC(=O)OC(C)(C)C)c4ccncc4)CC(O)(C(OC(=O)c4ccccc4)C21)C3(C)C (stereo not shown) [Compound 2255],< 1 nM
10,CC(=O)OC12COC1CC(O)C1(C)C(=O)C(OC(=O)C(C)C)C3=C(C)C(OC(=O)C(O)C(NC(=O)OC(C)(C)C)c4ccco4)CC(O)(C(OC(=O)c4ccccc4)C21)C3(C)C (stereo not shown) [Compound 2269],< 1 nM
11,CC(=O)OC12COC1CC(O)C1(C)C(=O)C(OC(=O)C(C)C)C3=C(C)C(OC(=O)C(O)C(NC(=O)OC(C)(C)C)c4ccoc4)CC(O)(C(OC(=O)c4ccccc4)C21)C3(C)C (stereo not shown) [Compound 2273],< 1 nM
12,CC(=O)OC12COC1CC(O)C1(C)C(=O)C(OC(=O)C(C)C)C3=C(C)C(OC(=O)C(O)C(NC(=O)OC(C)(C)C)c4cccs4)CC(O)(C(OC(=O)c4ccccc4)C21)C3(C)C (stereo not shown) [Compound 2287],< 1 nM
13,CC(=O)OC12COC1CC(O)C1(C)C(=O)C(OC(=O)C(C)C)C3=C(C)C(OC(=O)C(O)C(NC(=O)OC(C)(C)C)c4ccsc4)CC(O)(C(OC(=O)c4ccccc4)C21)C3(C)C (stereo not shown) [Compound 2291],< 1 nM
14,CC(=O)OC12COC1CC(O)C1(C)C(=O)C(OC(=O)C(C)C)C3=C(C)C(OC(=O)C(O)C(NC(=O)OC(C)(C)C)C(C)C)CC(O)(C(OC(=O)c4ccccc4)C21)C3(C)C (stereo not shown) [Compound 2306],< 10 nM
15,CC(=O)OC12COC1CC(O)C1(C)C(=O)C(OC(=O)C(C)C)C3=C(C)C(OC(=O)C(O)C(NC(=O)OC(C)(C)C)C4CCC4)CC(O)(C(OC(=O)c4ccccc4)C21)C3(C)C (stereo not shown) [Compound 2319],< 10 nM
16,CC(=O)OC12COC1CC(O)C1(C)C(=O)C(OC(=O)C(C)C)C3=C(C)C(OC(=O)C(O)C(NC(=O)OC(C)(C)C)c4ccc([N+](=O)[O-])cc4)CC(O)(C(OC(=O)c4ccccc4)C21)C3(C)C (stereo not shown) [Compound 2320],< 1 nM
